Source: patent US20240158348A1, “HERBICIDAL CYCLIC AMIDES N-SUBSTITUTED WITH A HALOALKYLSULFONYLANILIDE GROUP” (FMC Corporation, priority 2021, published 2024)

Tests used:
Type in all cases: in vivo
corn (Zea mays) = assay: Test C preemergence, corn; conditions: 0 is no effect, 100 is complete control
Description: (§1) Seeds of plant species selected from blackgrass (Alopecurus myosuroides), corn (Zea mays), foxtail, giant (giant foxtail, Setaria faberi), goosegrass (Eleusine indica), kochia (Bassia scoparia), oat, wild (wild oat, Avena fatua), pigweed, palmer (palmer amaranth, Amaranthus palmeri), ragweed (common ragweed, Ambrosia artemisiifolia), ryegrass, Italian (Italian ryegrass, Lolium multiflorum), soybean (Glycine max) and wheat (Triticum aestivum) were planted into a blend of loam soil and sand and treated preemergence with a directed soil spray using test chemicals formulated in a non-phytotoxic solvent mixture which included a surfactant.
(§2) At the same time, plants selected from these crop and weed species and also galium (catchweed bedstraw, Galium aparine) and horseweed (Erigeron canadensis) were planted in pots containing the same blend of loam soil and sand and treated with postemergence applications of test chemicals formulated in the same manner. Plants ranged in height from 2 to 10 cm and were in the one- to two-leaf stage for the postemergence treatment. Treated plants and untreated controls were maintained in a greenhouse for 10 or 12 days, after which time all treated plants were compared to untreated controls and visually evaluated for injury. Plant response ratings, summarized in Table A, are based on a 0 to 100 scale where 0 is no effect and 100 is complete control. A dash (-) response means no test result.

[1] = system: pigweed, palmer (palmer amaranth, Amaranthus palmeri); assay: Test C postemergence, palmer amaranth; conditions: for Pigweed, Palmer plant response rating: visual injury, 0 to 100 scale (0 no effect, 100 complete control); for Plant response rating (0 to 100 scale), Pigweed, Palmer: 0 is no effect, 100 is complete control
Description: as §1, §2

rice (Oryza sativa) = assay: Test D flooded paddy test, rice; set-up: key: 0 = no effect, 100 = complete control; conditions: 250 g ai/ha, Flood; applied to paddy water at 2-leaf stage; visual rating after 13 days; scale 0 (no effect) to 100 (complete control)
Experimental: (§3) Plant species in the flooded paddy test selected from barnyardgrass (Echinochloa crusgalli), ducksalad (Heteranthera limosa), rice (Oryza sativa), and sedge, umbrella (small-flower umbrella sedge, Cyperus difformis) were grown to the 2-leaf stage for testing. At time of treatment, test pots were flooded to 3 cm above the soil surface, treated by application of test compounds directly to the paddy water, and then maintained at that water depth for the duration of the test. Treated plants and controls were maintained in a greenhouse for 13 days, after which time all species were compared to controls and visually evaluated. Plant response ratings, summarized in Table B, are based on a scale of 0 to 100 where 0 is no effect and 100 is complete control. A dash (-) response means no test result.

[2] = system: oat, wild (wild oat, Avena fatua); assay: Test C preemergence, wild oat; conditions: 0 is no effect, 100 is complete control
Description: as §1, §2

kochia (Bassia scoparia) = assay: Test C postemergence, kochia; conditions: for Kochia plant response rating: visual injury, 0 to 100 scale (0 no effect, 100 complete control); for Plant response rating (0 to 100 scale), Kochia: 0 is no effect, 100 is complete control
Description: as §1, §2

[3] = system: ducksalad (Heteranthera limosa); assay: Test D flooded paddy test, ducksalad; set-up: key: 0 = no effect, 100 = complete control; conditions: 250 g ai/ha, Flood; applied to paddy water at 2-leaf stage; visual rating after 13 days; scale 0 (no effect) to 100 (complete control)
Experimental: as §3

[4] = system: blackgrass (Alopecurus myosuroides); assay: Test C postemergence, blackgrass; conditions: visual injury, 0 to 100 scale (0 no effect, 100 complete control)
Description: as §1, §2

soybean (Glycine max) = assay: Test C preemergence, soybean; conditions: 0 is no effect, 100 is complete control
Description: as §1, §2

[5] = system: foxtail, giant (giant foxtail, Setaria faberi); assay: Test C preemergence, giant foxtail; conditions: 0 is no effect, 100 is complete control
Description: as §1, §2

Row | Compound | Plant response rating (0 to 100 scale), Corn (corn (Zea mays); 31 g ai/ha Preemergence) | Plant response rating (0 to 100 scale), Corn (corn (Zea mays); 125 g ai/ha Preemergence) | Pigweed, Palmer plant response rating ([1]; 31 g ai/ha Postemergence) | Pigweed, Palmer plant response rating ([1]; 125 g ai/ha Postemergence) | Plant response rating, Rice (rice (Oryza sativa)) | Plant response rating (0 to 100 scale), Oat, Wild ([2]; 31 g ai/ha Preemergence) | Plant response rating (0 to 100 scale), Oat, Wild ([2]; 125 g ai/ha Preemergence) | Kochia plant response rating (kochia (Bassia scoparia); 31 g ai/ha Postemergence) | Plant response rating (0 to 100 scale), Kochia (kochia (Bassia scoparia); 125 g ai/ha Postemergence) | Plant response rating, Ducksalad [3] | Blackgrass plant response rating ([4]; 31 g ai/ha Postemergence) | Plant response rating (0 to 100 scale), Soybean (soybean (Glycine max); 31 g ai/ha Preemergence) | Plant response rating (0 to 100 scale), Soybean (soybean (Glycine max); 125 g ai/ha Preemergence) | Plant response rating (0 to 100 scale), Foxtail, Giant ([5]; 31 g ai/ha Preemergence) | Plant response rating (0 to 100 scale), Foxtail, Giant ([5]; 125 g ai/ha Preemergence) | Plant response rating (0 to 100 scale), Pigweed, Palmer ([1]; 125 g ai/ha Postemergence) | Kochia plant response rating (kochia (Bassia scoparia); 125 g ai/ha Postemergence) | Blackgrass plant response rating ([4]; 125 g ai/ha Postemergence)
1 | Cc1c(N2CCCC(OC3CCC3)C2=O)cc(N(COC(=O)C(C)(C)C)S(=O)(=O)C(F)(F)F)c(C)c1F (centres unmarked) [Compound 39] | 0 | 10 | 0 | 20 | 0 | 0 | 0 | 30 | 60 | 55 | 0 | 0 | 60 | 0 | 10 | – | – | –
2 | COC(=O)N(c1cc(N2CCC(OC3CC3)C2=O)c(C)cc1C)S(=O)(=O)C(F)(F)F (centres unmarked) [Compound 16] | 0 | 0 | 0 | – | 0 | 0 | 0 | 20 | 10 | 0 | 0 | 20 | 20 | 0 | 0 | 0 | – | –
3 | Cc1cc(Cl)c(N(COC(=O)C(C)(C)C)S(=O)(=O)C(F)(F)F)cc1N1CCC(OC2CC2)C1=O (centres unmarked) [Compound 33] | 30 | 60 | 20 | 80 | 45 | 10 | 50 | 80 | 90 | 80 | 0 | 0 | 60 | 70 | 100 | – | – | –
4 | Cc1cc(C)c(N2CCC(OCc3ccccc3)C2=O)cc1NS(=O)(=O)C(F)(F)F (centres unmarked) [Compound 61] | 20 | 100 | 50 | 80 | 20 | 50 | 90 | 60 | – | 75 | 30 | 40 | 90 | 100 | 100 | – | 90 | 70
5 | Cc1cc(C)c(N2CCC(OCC3CCCC3)C2=O)cc1NS(=O)(=O)C(F)(F)F (centres unmarked) [Compound 57] | 0 | 50 | 40 | 70 | 10 | 20 | 80 | 50 | – | 90 | 40 | 70 | 90 | 80 | 100 | – | 70 | 80
6 | C#CC(C)OC1CCN(c2cc(NS(=O)(=O)C(F)(F)F)c(C)cc2C)C1=O (centres unmarked) [Compound 58] | 20 | 100 | 50 | 80 | 60 | 90 | 100 | 70 | – | 80 | 50 | 100 | 100 | 100 | 100 | – | 90 | 70
7 | Cc1c(NS(=O)(=O)C(F)(F)F)cc(N2CCC(OC3CCC3)C2=O)c(C)c1F (centres unmarked) [Compound 25] | 30 | 90 | 70 | 90 | 15 | 40 | 90 | 60 | 90 | 75 | 0 | 80 | 90 | 100 | 100 | – | – | –
8 | Cc1c(N2CCC(OC3CC3)C2=O)cc(N(COC(=O)C(C)(C)C)S(=O)(=O)C(F)(F)F)c(C)c1F (centres unmarked) [Compound 23] | 10 | 20 | 50 | – | 40 | 40 | 90 | 30 | 80 | 80 | 10 | 30 | 40 | 20 | 90 | 70 | – | –
9 | Cc1c(N2CCCC(OC3CC3)C2=O)cc(N(COC(=O)C(C)(C)C)S(=O)(=O)C(F)(F)F)c(C)c1F (centres unmarked) [Compound 37] | 0 | 10 | 0 | 30 | 0 | 20 | 20 | 50 | 70 | 70 | 0 | 0 | 30 | 20 | 90 | – | – | –
10 | Cc1cc(C)c(N(C(=O)OCC(C)C)S(=O)(=O)C(F)(F)F)cc1N1CCC(OC2CC2)C1=O (centres unmarked) [Compound 21] | 20 | 90 | 30 | – | 85 | 30 | 90 | 70 | 80 | 98 | 40 | 0 | 60 | 100 | 100 | 70 | – | –
11 | Cc1c(NS(=O)(=O)C(F)(F)F)cc(N2CCC(OC3CCC3)C2=O)c(C)c1C (centres unmarked) [Compound 45] | 90 | 100 | 70 | 90 | 55 | 80 | 90 | 70 | – | 85 | 10 | 50 | 100 | 100 | 100 | – | 100 | 40
12 | Cc1cc(C)c(N2CCC(OCC3CCCO3)C2=O)cc1NS(=O)(=O)C(F)(F)F (centres unmarked) [Compound 42] | 0 | 70 | 50 | 70 | 15 | 0 | 30 | 10 | – | 95 | 0 | 0 | 90 | 20 | 100 | – | 60 | 50
